# Assay results reported in patent US11559528B2, “BACE1 inhibition for the treatment of cancer” (The Cleveland Clinic Foundation, priority 2019, dated 2023).
# Entries after “also recorded” stand apart in the source; their conditions may differ.
# Experiments:
# [1] = tested on: iPSC-derived M2 macrophages; assay: Fluorescent phagocytosis assay, iPSC-derived M2 macrophages against lung ADC cells (H1002); assay type: cell-based, human; parameters: dose or concentration left out as unconfirmed; settings: MK-8931 two days, p<0.01
# From the text: FIG. 10, panels A-C. MK-8931 Treatment Promotes Phagocytosis of iPSC-derived M2 Macrophages against Human Lung ADC Cancer Cells. (A) Immunofluorescent analysis of macrophage marker expression in iPSC-derived M2 macrophages. The iPSC-derived M2 macrophages (GFP+) and the matched iPSCs (GFP+, control) were stained with specific antibodies against IBA1 (total macrophage marker, in red) and FIZZ1 (M2 macrophage marker, in red) and then counterstained with DAPI (in blue). […] (B and C) In vitro macrophage phagocytosis assay showing that the BACE1 inhibitor MK-8931 promoted phagocytosis of the iPSC-derived macrophages against human lung ADC cancer cells. […] Scale bars represent 3 μM. […]
# In this assay, we detected macrophage phagocytosis as fluorescent inclusion bodies of the cancer cells (tdTomato^+) within macrophages (GFP^+). […] Thus, potential small molecules that can activate macrophages (GFP*) to phagocytize glioma cells (tdTomato*) could be detected under a fluorescent microscope during the screening (FIG. 1C).
# To screen for potential small molecules activating phagocytosis of iPSC-derived M2 macrophages against human cancer cells, GFP^+ iPSC-derived M2 macrophages (5×10^4 cells) were seeded in each well of 24-well plates and treated by small molecules for two days. […] The phagocytosis was measured as the number of inclusion bodies of cancer cells (in red) within macrophages (in green).
# [2] = tested on: GSCs (T387, T4121, and U87); assay: Cell viability (cell titer) assay on glioma stem cells; assay type: cell-based, human; settings: MK-8931 10 and 50 μg/mL, three days
# Protocol: (§1) FIG. 16, panels A-E. MK-8931 Treatment Had Little Effect on Glioma Stem Cells. (A and B) Tumorsphere formation assay to examine the effect of MK-8931 treatment on glioma stem cells (GSCs). Representative images (A) of tumorsphere derived from T4121 GSCs treated with MK-8931 (50 μg/mL) or the vehicle control. Quantifications (B) show the number and size of tumorsphere derived from T4121 GSCs treated with MK-8931 (50 μg/mL) or the control. Data are shown as mean±SEM. NS (not significant)≥0.05, Student's t-test. […] GAPDH was blotted as loading control. (D) Immunoblot analysis of the apoptotic markers cleaved-PARP and cleaved caspase-3 in GSCs (T387 and T4121) treated with MK-8931 (50 μg/mL), etoposide (Etop, 1 μM), or the vehicle control for different time as indicated. GAPDH was blotted as loading control. […] Ctl: Control; Etop: Etoposide. (E) Cell viability assay to examine the effect of MK-8931 treatment on proliferation of glioma stem cells. […] Data are shown as mean±SEM. NS (not significant)≥0.05, Student's t-test.
# Cell viability assay was performed by using a Cell Titer-Glo Luminescent Cell Viability Assay Kit according to the manufacturer's instruction (Promega, G7571). For this assay, 1,000 cells were seeded on one well of a 96-well plate in 100 μL of stem cell medium. […] Plate was loaded on the VICTOR Multilabel Plate Reader (PerkinElmer) and the readout were recorded and analyzed. […]
# [3] = tested on: GBM xenografts derived from T4121 GSCs; assay: MK-8931 combined with low dose irradiation in T4121 GBM xenografts
# Protocol: Glioma stem cells (T4121 GSCs) expressing luciferase were transplanted into mouse brains through intracranial injection to establish orthotopic GBM xenografts. Irradiation (2 Gy) was performed on Day 8 and Day 16. […] Representative bioluminescent images (B) at day 7 (before treatment) and day 15 (treatment for one week) are shown. […] Data are shown as mean±SEM. * p<0.05, ** p<0.01, * ** p<0.001, and NS (not significant)≥0.05 as indicated; Student's t-test. Ctl: Control; IR: Irradiation. […] Data are shown as mean±SEM. Log-rank analysis was used to assess the significance. Significances were shown as indicated. Ctl: Control; IR: irradiation.
# Frozen xenograft sections were co-immunostained with specific antibodies against IBA1 (in green) and CD163 (in red) or HLA-DR (in red) and counterstained with DAPI (in blue). Representative immunofluorescent images showing the staining of IBA1 and the M2 TAM marker CD163 (A) or IBA1 and the M1 TAM marker HLA-DR (B) in the GBM xenografts. […] (D and E). […] Frozen xenografts sections were immunostained with a specific antibody against cleaved caspase-3 (in green) and counterstained with DAPI (in blue). […] Data are shown as mean±SEM from at least 5 images of 3-5 mice. * p<0.05 and ** p<0.01; Student's t-test. Scale bar represents 3 μM. Ctl: Control; IR: Irradiation; CC-3: Cleaved caspase-3.
# Seven days after the implantation, IVIS was performed twice per week to monitor the tumor growth under the Spectrum CT Imaging System (PerkinElmer) before and after treatment. […] Mouse brains bearing the tumors were collected for immunofluorescent, histochemical and histological analyses.
# Irradiation (IR) was performed with the Pantek X-ray irradiator (once per week) at low dose (2 Gy). To protect the mice and limit the side effect of irradiation, anesthetized mice were covered by a lead plate and only the tumor implantation sites were exposed to the fractioned radiation. Mice were sacrificed at the indicated time points or upon the appearance of the neurological signs. […] Only animals with accidental death (for example, due to infection or intracranial injection) were excluded from the data analysis.
# (§3) Primary antibodies were added to the sections or cells and incubated overnight at 4° C. […] After the incubation of the primary antibodies, the sections or cells were washed three times with cold PBS for five minutes each and then incubated with the secondary antibodies for one hour at room temperature. […] Finally, images were captured by a fluorescence microscopy (Leica DM4000) and further analyzed with ImageJ software.
# [4] = tested on: bone marrow-derived macrophages (BMDMs); assay: Phagocytosis assay, bone marrow-derived macrophages against glioma cells; assay type: cell-based, mouse; settings: MK-8931 50 μg/mL two days; T4121; p<0.001
# HepG2 liver cancer cells = assay: Subcutaneous liver cancer xenografts (HepG2); assay type: in vivo, mouse; settings: 50 mg/kg once daily oral gavage, from two weeks after inoculation; p<0.05
# From the text: (§2) (A-C) A preclinical trial of MK-8931 for liver cancer treatment xenograft models. HepG2 liver cancer cells (5×106) were transplanted into mouse right flank through subcutaneous injection to establish subcutaneous liver cancer xenografts. […] Tumors dissected from mice of each group were photographed (B) and weighed (C).
# GSCs (T387 and T4121) = assay: Immunoblot of apoptotic markers in glioma stem cells; assay type: cell-based, human; settings: MK-8931 50 μg/mL, different times
# Protocol: as §1
# AGS gastric cancer cells = assay: Subcutaneous stomach cancer xenografts (AGS); assay type: in vivo, mouse; settings: 50 mg/kg once daily oral gavage, from two weeks after inoculation; p<0.05
# From the text: as §2, with “FIG. 22, panels A-C, show treatment with the BACE1 Inhibitor MK-8931 reduced tumor growth of gastric cancer. (A-C)” for “(A-C)”, “stomach” for “liver”, “treatment in” for “treatment”, “AGS gastric” for “HepG2 liver”, “(3×106)” for “(5×106)”
# [5] = tested on: intracranial xenografts of lung ADC (H1002); assay: Intracranial xenografts of lung adenocarcinoma (H1002) brain metastases; assay type: in vivo, mouse; settings: 30 mg/kg once daily oral
# Protocol: The lung cancer cells (H1002, ADC) expressing luciferase were transplanted into mouse brains to establish intracranial xenografts of lung ADC. […] Data are shown as mean±SEM. * p<0.05, *** p<0.001, and NS (not significant)≥0.05; Student's t-test.
# The lung ADC cancer cells (H1002) expressing luciferase were transplanted into mouse brains to establish intracranial xenografts of lung ADC. […] IVIS was performed twice per week to monitor tumor growth. When humane endpoints occur, mouse was anesthetized and brains with xenografts were harvested for further analyses. […] Frozen xenograft sections were immunostained with a specific antibody against cleaved caspase-3 (in green) and counterstained with DAPI (in blue). […] Frozen xenograft sections were immunostained with a specific antibody against cleaved GLUT1 (in green) and counterstained with DAPI (in blue). […] Frozen xenograft sections were immunostained with a specific antibody against Ki-67 (in green) and counterstained with DAPI (in blue). […] Data are shown as mean±SEM of at least 6 images from 3-5 mice. * p<0.05 and ** p<0.01; Student's t-test.
# In brief, GSCs (T4121 and T387) or lung ADC cells (H1002) expressing luciferase were injected into the right cerebral cortex at a depth of 3.5 mm. Seven days after the implantation, IVIS was performed twice per week to monitor the tumor growth under the Spectrum CT Imaging System (PerkinElmer) before and after treatment. […] Mouse brains bearing the tumors were collected for immunofluorescent, histochemical and histological analyses.
# as §3
# [6] = IR 2 Gy on Day 8 and Day 16 plus MK-8931 30 mg/kg once daily oral from Day 9, 30 mg/kg
smiles,measurement,setting,value
CN1C(N)=N[C@](C)(c2cc(NC(=O)c3ccc(F)cn3)ccc2F)CS1(=O)=O [MK-8931],phagocytosis of iPSC-derived macrophages against human lung ADC cancer cells,[1],potently induced phagocytosis of iPSC-derived macrophages
same,proliferation / cell viability of glioma stem cells (cell titer),[2],did not affect
same,"survival (Kaplan-Meier), IR plus MK-8931",[3]; [6],synergized with MK-8931 treatment to extend survival of the tumor-bearing animals; also recorded: longest survival extension among four experimental groups
same,"tumor growth (mean bioluminescence), IR plus MK-8931",[3]; [6],significantly synergized with MK-8931 treatment to inhibit GBM tumor growth; also recorded: strongest inhibition on GBM growth
same,"TAM subtype (CD163+ M2 vs HLA-DR+ M1), IR plus MK-8931",[3]; IR (2×2 Gy) plus MK-8931,effectively converted M2 TAMs (CD163+) into M1 macrophages (HLA-DR^+)
same,"apoptosis (fraction of cleaved caspase-3+ cells), IR plus MK-8931","[3]; IR (2×2 Gy) plus MK-8931 30 mg/kg, mean±SEM",25.9±3.1%
same,"apoptosis (fraction of cleaved caspase-3+ cells), MK-8931 treatment alone","[3]; MK-8931 30 mg/kg alone, mean±SEM",10.4±0.9%
same,phagocytosis of BMDMs against human glioma cells,[4],significantly promoted phagocytosis of BMDMs
same,tumor growth (tumor weight),HepG2 liver cancer cells,significantly inhibited liver tumor growth
same,apoptotic markers cleaved-PARP and cleaved caspase-3,GSCs (T387 and T4121),did not induce apoptosis in GSCs in vitro
same,tumor growth (tumor weight),AGS gastric cancer cells,significantly reduced tumor growth of gastric cancer
same,tumor growth (mean bioluminescence),"[5]; Days 7, 14 and 21",significantly inhibited tumor growth of lung ADC brain metastases
same,M1 TAMs (HLA-DR+/IBA1+ cells),[5]; p<0.001,significantly increased M1 TAMs
same,M2 TAMs (CD163+/IBA1+ cells),[5]; p<0.001,significantly reduced M2 TAMs
same,survival (Kaplan-Meier),[5]; p<0.001 by log-rank,significantly extended the survival of animals bearing the intracranial lung ADC xenografts
same,cell proliferation (fraction of Ki-67+ cells),[5]; p<0.01,significantly reduced cell proliferation
same,apoptosis (fraction of cleaved caspase-3+ cells),[5]; p<0.05,significantly augmented apoptosis
same,in vivo TAM phagocytosis (inclusion bodies),[5]; p<0.05,significantly increased TAM phagocytosis against human lung ADC cells
same,vessel density (GLUT1+ cells),[5]; p<0.05,significantly reduced vessel density
